Source: patent publication US20250243192A1, “CRYSTALLINE FORM OF LANIFIBRANOR” (INVENTIVA, priority 2022, published 2025)

Columns and labels:
Assay type in all cases: physicochemical
[1] = Competitive slurry tests (stability tests) in various solvents, solid analysed by PXRD; conditions: room temperature; for Form(s) present T0: immediately after stirring was initiated
Protocol: Competitive slurry tests were performed in various solvents such as acetone, ethanol, ethyl acetate, acetic acid, methyl ethyl ketone and methyl isobutyl ketone.
A saturated solution of lanifibranor form beta (as obtained in example 2) was prepared for each solvent. An equal amount of lanifibranor form alpha and lanifibranor form beta was introduced into a vial (50 mg+50 mg), and 250 μL of the saturated solution prepared beforehand (recovered by filtration through a 0.2 μm H-PTFE filter) were then added. The mixture was stirred at room temperature, samples of the solid were taken immediately after stirring was initiated and 24 hours after, and analyzed by PXRD to identify the solid form(s) present.

[2] = Screening for solid forms of lanifibranor
From the text: An amorphous form was further obtained.

[3] = Compression tests, pellet analysed by PXRD; conditions: 100 mg, 13 mm die, 10-Ton pressure for 15 minutes
Protocol: Compression tests were performed on the crystalline forms (alpha, beta) and on the amorphous form of lanifibranor. 100 mg of each sample were introduced between […] into a 13 mm die and subjected to a 10-Ton pressure for 15 minutes. The pellet obtained was then de-compacted and analysed by PXRD in order to monitor changes in the crystal structure of the sample.

[4] = Thermogravimetry (TGA) analysis; conditions: temperature range 25-200° C.
Protocol: TGA analysis was conducted on a Mettler Toledo TGA/DSC3+ thermogravimetric analyzer. Analyses were performed on a few milligrams of sample, in 100 µL sealed aluminum pans, punctured before analysis, under nitrogen flush at 50 mL/min. A temperature range between 25° C. and 300° C. was scanned at a 10° C./min rate.

[5] = Stability testing in accordance with EMA guidance (CPMP/ICH/2736/99), PXRD and DSC after storage
Protocol: Lanifibranor form beta, as obtained in example 2, was submitted to stability testing in accordance with EMA guidance (CPMP/ICH/2736/99, last revised in August 2003); the drug substance was thus stored under the following conditions: • 6 months at 30° C./65° RH, • 6 months at 40° C./75% RH, and • 12 months at 25° C./60% RH.
At the end of each storage period, the drug substance was characterized by PXRD and by DSC.

[6] = Dynamic vapor sorption (DVS) analysis; conditions: range 0% RH-95% RH, 25° C.
Protocol: DVS analysis was conducted on a SMS DVS Intrinsic system. Analyses were performed on a few milligrams of sample, in open aluminum pans at 25° C. The stability criterion for each step was a weight change lower than 0.002% on a 5 min time frame. The time criterion for each step was 100 min (minimum duration by step: 10 min). Relative humidity was scanned between 0% RH and 95% RH with 10% RH steps (40-0-95-0-95).

## O=C(O)CCCc1cc2cc(Cl)ccc2n1S(=O)(=O)c1ccc2ncsc2c1 [1-(6-benzothiazolylsulfonyl)-5-chloro-1H-indole-2-butanoic acid]
[1]; acetic acid
  Form(s) present T0 + 24 h: form beta
  Form(s) present T0: form alpha + form beta
[1]; acetone
  Form(s) present T0 + 24 h: form beta
  Form(s) present T0: form alpha + form beta
[1]; ethanol
  Form(s) present T0 + 24 h: form beta
  Form(s) present T0: form alpha + form beta
[1]; ethyl acetate
  Form(s) present T0 + 24 h: form beta
  Form(s) present T0: form alpha + form beta
[1]; methyl ethyl ketone
  Form(s) present T0 + 24 h: form beta
  Form(s) present T0: form alpha + form beta
[1]; methyl isobutyl ketone
  Form(s) present T0 + 24 h: form beta
  Form(s) present T0: form alpha + form beta

## O=C(O)CCCc1cc2cc(Cl)ccc2n1S(=O)(=O)c1ccc2ncsc2c1 [amorphous form, 1-(6-benzothiazolylsulfonyl)-5-chloro-1H-indole-2-butanoic acid]
[2]
  stability of the solid form upon handling/processing: crystallize into form alpha or form beta even at low temperatures
[3]
  change in the solid form after compression (PXRD): weak diffraction signals corresponding to form beta were detected after compression

## O=C(O)CCCc1cc2cc(Cl)ccc2n1S(=O)(=O)c1ccc2ncsc2c1 [lanifibranor form alpha, 1-(6-benzothiazolylsulfonyl)-5-chloro-1H-indole-2-butanoic acid]
[2]
  stability of the solid form upon handling/processing: did readily convert to the other form upon handling/processing
[3]
  change in the solid form after compression (PXRD): additional signals that could correspond to peak shifts caused by a transformation to form beta

## O=C(O)CCCc1cc2cc(Cl)ccc2n1S(=O)(=O)c1ccc2ncsc2c1 [lanifibranor form beta, 1-(6-benzothiazolylsulfonyl)-5-chloro-1H-indole-2-butanoic acid]
[2]
  stability of the solid form upon handling/processing: more stable form
[3]
  change in the solid form after compression (PXRD): no significant change in the solid form
[1]; conclusion from the competitive slurries in all solvents
  relative stability of the solid forms: most stable form at room temperature
[4]
  weight loss in TGA curve: does not highlight any significant weight loss
[5]; 6 months at 30° C./65° RH
  solid form stability on storage (PXRD and DSC): stable over long-term storage
[5]; 6 months at 40° C./75% RH
  solid form stability on storage (PXRD and DSC): stable over long-term storage
[5]; 12 months at 25° C./60% RH
  solid form stability on storage (PXRD and DSC): stable over long-term storage
[6]
  maximum uptake (weight variation) in DVS: +0.1%
